Earlier results on one molecule are cited in patent US8153159B2, “Modafinil modified release pharmaceutical compositions” (Cephalon, Inc., priority 2003, dated 2012).

Each structure is given as a SMILES string.

For one series, the system named is monkeys. The conditions noted are these: single administration, Duteil et al. 1990.
The subject of another series is humans. Conditions: Bastuji et al. 1988.
In a further series the test system is mice. The conditions noted are these: single administration, Duteil et al. 1990.

`NC(=O)C[S+]([O-])C(c1ccccc1)c1ccccc1` (stereo not drawn) [Modafinil, 2-(benzhydrylsulfinyl)acetamide]: the nocturnal activity result in the series on monkeys is listed as “increased nocturnal activity”. In the series on humans, the “treatment of idiopathic hypersomnia and narcolepsy” value is on record as “successfully tested”. Further, the locomotor activity entry with mice is “increased locomotor activity”.
